Entries after “also recorded” stand apart in the source; their conditions may differ.
Key:
Assay type in all cases: cell-based, Pseudomonas aeruginosa
[1] = system: 30B1 mutant colony biofilm
[2] = system: 45E7 mutant flow cell biofilm
[3] = system: 45E7 mutant colony biofilm

NC[C@H]1O[C@H](O[C@H]2[C@H](O)[C@@H](O[C@H]3O[C@H](CO)[C@@H](O)[C@H](N)[C@H]3O)[C@H](N)C[C@@H]2N)[C@H](N)C[C@@H]1O [Tb, tobramycin]
drop in viable count in colony biofilm [1]: ~10^9
viable cells in colony biofilm [1]: below detection; also recorded: no viable cells detected
live versus dead cells in Tb-treated biofilm (BacLight) [2]: more dead cells than live ones
resistance of colony biofilm cells [3]: as resistant to the effects of Tb as the wild type
viable cells in colony biofilm [3]: below detection; also recorded: no viable cells were detected

Reference: patent US7109294B2, “Bacterial glycosyltransferase polypeptides involved in antibiotic resistance” (priority 2001, dated 2006)
